What all share (type): cell-based
One test has as its system E. coli strain MP-4. The test is described as follows: Broth dilution MIC determination (CLSI) against E. coli strain MP-4. To be noted: Escherichia coli, MP4. As for the experimental part: (§1) Minimum inhibitory concentrations (MICs) for macrolides described herein were determined for E. coli strain MP-4, K. pneumoniae strain MP-548, P. aeruginosa strain MP-3, A. baumannii strain MP-15, and S. aureus strain MP-12 using similar test procedures as published in US Pat. Pub. No. 2017/0305953. MIC data is represented as “+++” for values less than or equal to 4 mg/L, “++” for values of greater than or equal to 8 mg/L and less than 32 mg/L, and “+” for values of 32 mg/L or greater. ND indicates no data for a particular compound. CLSI standard procedures for broth dilution MIC determination were used.

Test [1] relates to K. pneumoniae strain MP-548. The test is described as follows: Broth dilution MIC determination (CLSI) against K. pneumoniae strain MP-548. Conditions: Klebsiella pneumoniae, MP548. How it is done: as §1
(Broth dilution looks for growth in wells or tubes with falling amounts of substance.)

Test [2] has as its system P. aeruginosa strain MP-3. Briefly: Broth dilution MIC determination (CLSI) against P. aeruginosa strain MP-3. To be noted: Pseudomonas aeruginosa, MP3. How it is done: as §1
Test [3] relates to A. baumannii strain MP-15. Briefly: Broth dilution MIC determination (CLSI) against A. baumannii strain MP-15. To be noted: Acinetobacter baumannii, MP15. As for the experimental part:
as §1

The next test has as its system S. aureus strain MP-12. The test is described as follows: Broth dilution MIC determination (CLSI) against S. aureus strain MP-12. Conditions: Staphylococcus aureus, MP12, strain MP-12. How it is done: as §1

Converted amounts (≈) assume the structure as drawn.

What is called MIC is the lowest concentration found to suppress growth. The low end stands for a more susceptible organism, the high end for a less susceptible organism. For `CC[C@H]1OC(=O)C(C)C(=O)[C@H](C)[C@@H](O[C@@H]2O[C@H](C(C)N(CC3CC3)CC3CC3)CC(N(C)C)[C@H]2O)[C@](C)(OC)C[C@@H](C)CN[C@H](C)[C@H]2NC(=O)O[C@@]21C` (stereo partly drawn) [Compound 177, 3-Descladinosyl-3-oxo-6-O-methyl-N9a-desmethyl-11,12-dideoxy-12,11-(oxycarbonylimino)-6′-((R,S)-(dicyclopropylmethylamino)ethyl) Azithromycin], the minimum inhibitory concentration (MIC) in the test with E. coli strain MP-4 was 8 to 32 µg/mL (≈ 10.7 to 42.6 µM); in test [1], ≥ 32 µg/mL; in test [2] it was ≥ 32 µg/mL; in test [3], ≥ 32 µg/mL; against S. aureus strain MP-12 it was ≥ 32 µg/mL.
With `CCNCC1CC(N(C)C)C(O)C(O[C@@H]2[C@@H](C)C(=O)C(C)C(=O)O[C@H](CC)[C@@]3(C)OC(=O)N[C@@H]3[C@@H](C)NC[C@H](C)C[C@@]2(C)OC)O1` (some centres unmarked) [Compound 108, 3-Descladinosyl-3-oxo-6-O-methyl-N9a-desmethyl-11,12-dideoxy-12,11-(oxycarbonylimino)-6′-ethylamino azithromycin], the MIC against E. coli strain MP-4 is 8 to 32 µg/mL (≈ 12.2 to 48.7 µM); in test [1], ≥ 32 µg/mL; in test [2], ≥ 32 µg/mL; in test [3] it was ≥ 32 µg/mL; against S. aureus strain MP-12 it was ≥ 32 µg/mL.
As for `CC[C@H]1OC(=O)[C@@]2(C)CCOC(C)(C[C@@H](C)CN(C(=O)C(F)(F)F)[C@H](C)[C@H]3NC(=O)O[C@@]31C)[C@H](O[C@@H]1OC(C)CC(N(C)C)C1O)[C@@H](C)C2=O` (some centres unmarked) [Compound 220], the minimum inhibitory concentration (MIC) (in the test on E. coli strain MP-4; in test [1]; in test [2]; in test [3]; with S. aureus strain MP-12) was ≥ 32 µg/mL throughout.
For the molecule `CC[C@H]1OC(=O)[C@@]2(C)CCOC(C)(C[C@@H](C)CN(C)[C@H](C)[C@H]3NC(=O)O[C@@]31C)[C@H](O[C@@H]1O[C@H](CN(C)C3CC3)C[C@H](N(C)C)[C@H]1O)[C@@H](C)C2=O` [Compound 209], the MIC in the test on E. coli strain MP-4 is ≤ 4 µg/mL; in test [1], ≤ 4 µg/mL; in test [2] it was ≥ 32 µg/mL; in test [3], 8 to 32 µg/mL (≈ 11.3 to 45.1 µM); against S. aureus strain MP-12, ≤ 4 µg/mL.
On to `CC[C@H]1OC(=O)C(C)C(=O)[C@H](C)[C@@H](O[C@@H]2OC(CNCc3ccc(Cl)cc3)CC(N(C)C)C2O)[C@](C)(OC)C[C@@H](C)CN[C@H](C)[C@H]2NC(=O)O[C@@]21C` (some centres unmarked) [Compound 36], for which the MIC against E. coli strain MP-4 is ≤ 4 µg/mL; in test [1], ≥ 32 µg/mL; in test [2], ≥ 32 µg/mL; in test [3] it was ≥ 32 µg/mL; against S. aureus strain MP-12 it was ≥ 32 µg/mL.
With `CCNC[C@@H]1CC(N(C)C)[C@@H](O)[C@H](O[C@@H]2[C@@H](C)C(=O)C(C)C(=O)O[C@H](CC)[C@@]3(C)OC(=O)N[C@@H]3[C@@H](C)N(C)C[C@H](C)C[C@@]2(C)OC)O1` (some centres unmarked) [Compound 165, 3-Descladinosyl-3-oxo-6-O-methyl-11,12-dideoxy-12,11-(oxycarbonylimino)-6′-ethylamino Azithromycin], the MIC against E. coli strain MP-4 is ≤ 4 µg/mL; in test [1] it was 8 to 32 µg/mL (≈ 11.9 to 47.7 µM); in test [2], ≥ 32 µg/mL; in test [3], ≥ 32 µg/mL; against S. aureus strain MP-12, ≥ 32 µg/mL.
Consider `CC[C@H]1OC(=O)C(C)C(=O)[C@H](C)[C@@H](OC2OC(CN(C)C(C)C)CC(N(C)C)C2O)[C@](C)(OC)C[C@@H](C)CN(C)[C@H](C)[C@H]2NC(=O)O[C@@]21C` (some centres unmarked) [Compound 160, 3-Desdadinosyl-3-oxo-6-O-methyl-9a-desmethyl-11,12-dideoxy-12,11-(oxycarbonylimino)-6′-isopropylmethylamino Azithromycin], for which the MIC with E. coli strain MP-4 is ≤ 4 µg/mL; in test [1], ≥ 32 µg/mL; in test [2] it was ≥ 32 µg/mL; in test [3], ≥ 32 µg/mL; in the test with S. aureus strain MP-12, ≥ 32 µg/mL.
Regarding `CC[C@H]1OC(=O)C(C)C(=O)[C@H](C)[C@@H](O[C@@H]2OC(CNc3cccnc3)CC(N(C)C)C2O)[C@](C)(OC)C[C@@H](C)CN[C@H](C)[C@H]2NC(=O)O[C@@]21C` (some centres unmarked) [Compound 52], the MIC against E. coli strain MP-4 is ≤ 4 µg/mL; in test [1], 8 to 32 µg/mL (≈ 11.3 to 45.3 µM); in test [2], ≥ 32 µg/mL; in test [3], ≥ 32 µg/mL; against S. aureus strain MP-12, ≥ 32 µg/mL.
For the molecule `CC[C@H]1OC(=O)[C@@](C)(F)C(=O)[C@H](C)[C@@H](O[C@@H]2OC(CNc3ccc(-c4cncnc4)cc3)CC(N(C)C)C2O)[C@](C)(OC)C[C@@H](C)C(=O)[C@H](C)[C@H]2NC(=O)O[C@@]21C` (some centres unmarked) [Compound 94], the MIC against E. coli strain MP-4 was ≥ 32 µg/mL; in test [1], ≥ 32 µg/mL; in test [2] it was ≥ 32 µg/mL; in test [3], 8 to 32 µg/mL (≈ 10 to 40 µM); against S. aureus strain MP-12 it was ≤ 4 µg/mL.
As for `CC[C@H]1OC(=O)C(C)C(=O)[C@H](C)[C@@H](OC2OC(CNC34CC(C3)C4)CC(N(C)C)C2O)[C@](C)(OC)C[C@@H](C)CN[C@H](C)[C@H]2NC(=O)O[C@@]21C` (some centres unmarked) [Compound 141, 3-Descladinosyl-3-oxo-6-O-methyl-N9a-desmethyl-11,12-dideoxy-12,11-(oxycarbonylimino)-6′-(bicyclo[1.1.1]pentanylamino) Azithromycin], the MIC in the test with E. coli strain MP-4 was ≤ 4 µg/mL; in test [1], ≤ 4 µg/mL; in test [2], ≥ 32 µg/mL; in test [3], 8 to 32 µg/mL (≈ 11.5 to 46 µM); against S. aureus strain MP-12 it was 8 to 32 µg/mL (≈ 11.5 to 46 µM).
For the molecule `CC[C@H]1OC(=O)C(C)C(=O)[C@H](C)[C@@H](O[C@@H]2OC(CNCc3ccc(S(C)(=O)=O)cc3)CC(N(C)C)C2O)[C@](C)(OC)C[C@@H](C)CN[C@H](C)[C@H]2NC(=O)O[C@@]21C` (some centres unmarked) [Compound 45], the MIC (in the test with E. coli strain MP-4; in test [1]; in test [2]; in test [3]; against S. aureus strain MP-12) was ≥ 32 µg/mL each time.
Take `CO[C@]1(C)C[C@@H](C)CN[C@H](C)[C@H]2NC(=O)O[C@]2(C)[C@@H](C)OC(=O)C(C)C(=O)[C@H](C)[C@H]1OC1OC(CN2CCCCC2)CC(N(C)C)C1O` (some centres unmarked) [Compound 149, 3-Descladinosyl-3-oxo-6-O-methyl-N9a-desmethyl-11,12-dideoxy-12,11-(oxycarbonylimino)-6′-piperidinyl-13-methyl Azithromycin]: the MIC was ≤ 4 µg/mL in the test on E. coli strain MP-4; ≥ 32 µg/mL in test [1]; ≥ 32 µg/mL in test [2]; ≥ 32 µg/mL in test [3]; ≥ 32 µg/mL in the test on S. aureus strain MP-12.
Take `C#CCNCC1CC(N(C)C)C(O)[C@H](O[C@@H]2[C@@H](C)C(=O)C(C)C(=O)O[C@H](CC)[C@@]3(C)OC(=O)N[C@@H]3[C@@H](C)NC[C@H](C)C[C@@]2(C)OC)O1` (some centres unmarked) [Compound 53]: the minimum inhibitory concentration (MIC) in the test with E. coli strain MP-4 is ≤ 4 µg/mL; in test [1], 8 to 32 µg/mL (≈ 12 to 48 µM); in test [2] it was ≥ 32 µg/mL; in test [3] it was ≥ 32 µg/mL; against S. aureus strain MP-12 it was ≥ 32 µg/mL.
`CC[C@H]1OC(=O)C(C)C(=O)[C@H](C)[C@@H](O[C@@H]2OC(CNCc3cncc(-n4cncn4)n3)CC(N(C)C)C2O)[C@](C)(OC)C[C@@H](C)CN[C@H](C)[C@H]2NC(=O)O[C@@]21C` (some centres unmarked) [Compound 26]: the minimum inhibitory concentration (MIC) (against E. coli strain MP-4; in test [1]; in test [2]; in test [3]; against S. aureus strain MP-12) was ≥ 32 µg/mL each time.
For `CC[C@H]1OC(=O)C(C)C(=O)[C@H](C)[C@@H](OC2OC(CN3CCN(C(C)=O)CC3)CC(N(C)C)C2O)[C@](C)(OC)C[C@@H](C)CN[C@H](C)[C@H]2NC(=O)O[C@@]21C` (some centres unmarked) [Compound 125, 3-Descladinosyl-3-oxo-6-O-methyl-N9a-desmethyl-11,12-dideoxy-12,11-(oxycarbonylimino)-6′-(1-(4-acetyl)-piperazinyl) Azithromycin], the MIC (against E. coli strain MP-4; in test [1]; in test [2]; in test [3]; in the test on S. aureus strain MP-12) was ≥ 32 µg/mL each time.
Regarding `CC[C@H]1OC(=O)C(C)C(=O)[C@H](C)[C@@H](O[C@@H]2OC(CNCc3ccc(F)cn3)CC(N(C)C)C2O)[C@](C)(OC)C[C@@H](C)CN[C@H](C)[C@H]2NC(=O)O[C@@]21C` (some centres unmarked) [Compound 38], the MIC was ≤ 4 µg/mL against E. coli strain MP-4; ≥ 32 µg/mL in test [1]; ≥ 32 µg/mL in test [2]; ≥ 32 µg/mL in test [3]; ≥ 32 µg/mL against S. aureus strain MP-12.
Turning to `C=CC1CC(N(C)C)C(O)[C@H](O[C@@H]2[C@@H](C)C(=O)[C@]3(C)CCOC2(C)C[C@@H](C)CN[C@H](C)[C@H]2NC(=O)O[C@]2(C)[C@@H](CC)OC3=O)O1` (some centres unmarked) [Compound 211], the MIC with E. coli strain MP-4 is ≤ 4 µg/mL; in test [1], ≤ 4 µg/mL; in test [2], ≥ 32 µg/mL; in test [3], ≤ 4 µg/mL; in the test with S. aureus strain MP-12 it was ≤ 4 µg/mL.
As to `CC[C@H]1OC(=O)[C@@]2(C)CCO[C@](C)(C[C@@H](C)CN[C@H](C)[C@H]3NC(=O)O[C@@]31C)[C@H](O[C@@H]1O[C@H](CNCC3CC3)C[C@H](N(C)C)[C@H]1O)[C@@H](C)C2=O` [Compound 197], the MIC (in the test on E. coli strain MP-4; in test [1]; in test [2]; in test [3]; against S. aureus strain MP-12) was ≥ 32 µg/mL throughout.
Consider `CC[C@H]1OC(=O)C(C)C(=O)[C@H](C)[C@@H](O[C@@H]2O[C@H]([C@H](C)N3CCCCC3)CC(N(C)C)[C@H]2O)[C@](C)(OC)C[C@@H](C)CN[C@H](C)[C@H]2NC(=O)O[C@@]21C` (stereo partly drawn) [Compound 179, 3-Descladinosyl-3-oxo-6-O-methyl-N9a-desmethyl-11,12-dideoxy-12,11-(oxycarbonylimino)-6′-((S)-1-(piperidin-1-yl)ethyl) Azithromycin], for which the minimum inhibitory concentration (MIC) is ≤ 4 µg/mL against E. coli strain MP-4; 8 to 32 µg/mL (≈ 11.3 to 45 µM) in test [1]; ≥ 32 µg/mL in test [2]; ≥ 32 µg/mL in test [3]; ≥ 32 µg/mL in the test with S. aureus strain MP-12.

The values above are taken from patent publication US11673910B2, “Macrolides with modified desosamine sugars and uses thereof” (Zikani Therapeutics, Inc., priority 2017, dated 2023).
